# Where a SMILES comes first, the peptide text is derived from it.
# Tests used:
# [1] = tested on: superoxide dismutase (SOD); assay: Antioxidative enzyme activity, superoxide dismutase (assay kit); assay type: cell-based, murine; details: 70 μM, UV-exposed B16F10 cells
# Experimental: (§1) To determine the antioxidant activity, the centrifugation precipitate from Section 4.6 was dissolved in 1 mL of 1 M NaOH containing 10% DMSO at 80 °C for 1 h. Various assay kits, all from Beijing Solarbio Science & Technology Co., Ltd., Beijing, China, were used to measure the quantity of reduced reactive oxygen species (ROS) and the activity of superoxide dismutase (SOD), catalase (CAT), and glutathione peroxidase (GPx) according to the methods by Hu et al..
# [2] = tested on: B16F10 melanoma cells; assay: Melanin content assay in UV-induced B16F10 cells; assay type: cell-based, murine; details: 70 μM peptide, UVA/UVB-induced B16F10 cells, triplicate
# Experimental: Cellular melanin content was measured using a modified method by Jegal, et al.. B16F10 cells were seeded at 5 × 10^5 cells/mL in 24-well plates. […] After that, the cells in each well were washed and replaced by PBS. The UV stimulation process was performed by the exposure to UVA (314-400 nm, 3.0 W) and UVB (280-315 nm, 13.6 W) for 22 s. Then, PBS was replaced with media and further incubated for 24 h. The UV-stimulated cells were then trypsinized and centrifuged at 1500 rpm for 5 min. The cell pellet was then dissolved in 2 M NaOH at 60 °C for 1 h to solubilize the melanin. The melanin content was estimated by measuring the absorbance at 405 nm. The melanin content was calculated with the following equation: % Melanin content=(S)/(C)×100, where, S is the OD405 of sample and C represents the OD405 of control. All experiments were performed in triplicate.
# [3] = tested on: glutathione peroxidase (GPx); assay: Antioxidative enzyme activity, glutathione peroxidase (assay kit); assay type: cell-based, murine; details: 70 μM, UV-exposed B16F10 cells
# Experimental: as §1
# [4] = target: mushroom tyrosinase (Agaricus bisporus, UniProt C7FF04); assay: Mushroom tyrosinase activity assay (L-DOPA oxidation, diphenolase); assay type: biochemical; details: L-DOPA substrate, up to 500 μM
# Sequence of mushroom tyrosinase (C7FF04 1-392): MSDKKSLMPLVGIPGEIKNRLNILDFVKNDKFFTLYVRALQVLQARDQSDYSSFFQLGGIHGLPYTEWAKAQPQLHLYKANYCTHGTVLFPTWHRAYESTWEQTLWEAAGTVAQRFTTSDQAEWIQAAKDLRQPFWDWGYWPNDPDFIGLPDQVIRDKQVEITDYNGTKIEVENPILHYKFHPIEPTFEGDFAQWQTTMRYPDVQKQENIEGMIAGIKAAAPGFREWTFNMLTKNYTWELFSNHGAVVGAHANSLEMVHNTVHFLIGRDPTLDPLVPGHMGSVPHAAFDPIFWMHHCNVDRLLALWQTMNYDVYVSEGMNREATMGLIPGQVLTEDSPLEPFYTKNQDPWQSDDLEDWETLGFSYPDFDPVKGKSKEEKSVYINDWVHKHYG
# Sequence of mushroom tyrosinase (G1K3P4 1-150 partner): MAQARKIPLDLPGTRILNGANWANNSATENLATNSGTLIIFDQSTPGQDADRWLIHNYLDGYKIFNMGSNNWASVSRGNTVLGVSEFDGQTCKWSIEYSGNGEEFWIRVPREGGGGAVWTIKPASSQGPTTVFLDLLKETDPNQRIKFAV
# Experimental: The inhibitory effect on mushroom tyrosinase was determined spectrophotometrically via L-DOPA oxidation. The reaction mixture consisted of 20 μL of hdTIPs, 140 μL of 100 mM sodium phosphate buffer (pH6.8) and 40 μL of 200 units/mL mushroom tyrosinase (EC 1.14.18.1; Sigma, Saint Louis, USA) placed in a 96-well microplate, then incubated for 10 min. After that, 20 μL of 5mM L-DOPA were mixed into each well over 20 min. Furthermore, the amount of dopachrome produced absorbance was measured at 475 nm. In addition, KA was used as the positive control at the same concentrations and conditions to hdTIPs. This method was modified from Kim et al..
# The mushroom tyrosinase inhibitory activity was calculated with the following equation: % Mushroom tyrosinase inhibition=[(C)−(S)/(C)]×100, where, C represents the OD475 of control and S is the OD475 of sample. All experiments were performed in triplicate to determine the IC50 of the samples.
# [5] = tested on: tyrosinase; details: RF machine learning model, 425 sequence features; cited from earlier work
# Text: (§2) Table 1 Abalone predicted TIPs by KNN and RF-based predictors and the predicted antioxidant scores by AnOxPePred 1.0 program. | column: Predicted Anti-Tyrosinase Probability / RF Predictor || Previously, our research team proposed the in-house machine learning-based anti-tyrosinase prediction tool, which provides thousands of potential peptides. The probability scores of all 1079 peptides from KNN-based and RF-based models can be found in the supplementary file of the previous article by Kongsompong et al.. The KNN and RF predictors were trained and tested against 133 peptides with known anti-tyrosinase properties with 97% and 99% accuracy. The predictions of both models were based on the numeric matrix of 425 features calculated from amino acid composition (20 featur ...
# [6] = tested on: tyrosinase; details: KNN machine learning model, 425 sequence features; cited from earlier work
# Text: as §2, with “/ KNN” for “/ RF”
# [7] = target: T1, cellular tyrosinase (Mus musculus, UniProt P11344); assay: Intracellular (cellular) tyrosinase activity assay in UV-induced B16F10 cells; assay type: cell-based, murine; details: 70 μM peptide, UVA/UVB-induced B16F10 cells, triplicate
# T1 construct: the harvested cells were lysed in cell extraction buffer; endogenous in cells; host or cells: B16F10 murine melanoma cells, UVA/UVB-induced
# T1 sequence (P11344 19-533): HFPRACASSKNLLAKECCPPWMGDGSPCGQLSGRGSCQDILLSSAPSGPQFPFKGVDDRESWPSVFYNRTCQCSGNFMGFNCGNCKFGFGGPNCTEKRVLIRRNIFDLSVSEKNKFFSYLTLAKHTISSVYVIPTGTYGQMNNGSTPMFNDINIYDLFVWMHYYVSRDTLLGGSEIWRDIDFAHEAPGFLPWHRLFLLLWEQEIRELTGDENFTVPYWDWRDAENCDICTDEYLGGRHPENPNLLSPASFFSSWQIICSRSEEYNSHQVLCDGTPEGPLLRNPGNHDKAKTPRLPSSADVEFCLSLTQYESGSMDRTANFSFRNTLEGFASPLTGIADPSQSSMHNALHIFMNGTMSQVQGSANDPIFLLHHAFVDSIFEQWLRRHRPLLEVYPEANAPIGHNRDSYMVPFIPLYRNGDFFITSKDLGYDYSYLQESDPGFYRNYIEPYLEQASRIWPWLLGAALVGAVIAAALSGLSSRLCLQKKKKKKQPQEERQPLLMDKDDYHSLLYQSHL
# Experimental: Tyrosinase activity was measured based on Dopa oxidase activity by estimating the dopachrome production according to the method by Qiao et al., 2012 [54], with some modifications. B16F10 cells were seeded at 5 × 10^6 cells/mL in 24-well plates. […] Each well was then washed and replaced with PBS 600 μL and induced with UVA (314-400 nm, 3.0 W) and UVB (280-315 nm, 13.6 W) using OSRAM (Ultra-Vitalux, Germany) for 22 s (0.32 J/cm^2). After that, the cells were incubated with medium 600 μL/well for a further 24 h. Then, the cells were trypsinized and the harvested cells were lysed in cell extraction buffer. After normalized protein concentration, 10 μL of each lysate supernatant was aliquoted into a 96-well plate and shaking incubated in dark conditions with 1 mM L-DOPA 90 μL in PBS at 37 °C at 280 rpm for 10 min. The absorbance was measured at 475 nm and all experiments were performed in triplicate to determine the IC50 of the samples. The cellular tyrosinase inhibitory activity was calculated with the following equation: % Cellular tyrosinase inhibition=[(C)-(S)/(C)]×100, where, C are defined as in the previous section.
structure (smiles),measurement,setting,value
CSCC[C@H](NC(=O)[C@H](CCC(N)=O)NC(=O)[C@H](CO)NC(=O)[C@@H](N)[C@@H](C)O)C(=O)N[C@@H](CO)C(=O)N[C@@H](CCCNC(=N)N)C(=O)N[C@@H](CO)C(=O)N[C@@H](CO)C(=O)N[C@@H](CO)C(=O)N[C@@H](CCCNC(=N)N)C(=O)O [KNN2] (H-TSQMSRSSSR-OH; N-terminus and C-terminus assumed),effect on SOD activity,[1],elevated
same,inhibition of melanin content,[2],fourth-most-effective inhibitor
same,effect on GPx activity,[3],elevated
same,inhibitory effect on mushroom tyrosinase (diphenolase activity),[4],did not show any inhibition
same,Predicted Anti-Tyrosinase Probability RF Predictor,[5],0.37
same,Predicted Anti-Tyrosinase Probability KNN Predictor,[6],1.00
same,inhibition of cellular tyrosinase,[7],fourth-most-effective inhibitor
